Measurements from patent publication US9108950B2, “1-pyrazolyl-3-(4-((2-anilinopyrimidin-4-yl)oxy)napththalen-1-yl) ureas as p38 MAP kinase inhibitors” (Respivert Ltd., priority 2011, dated 2015).

Assays:
[1] = test system: Differentiated U937 cells; test: Cell viability: MTT assay; format: cell-based, human; conditions: 1 μg/mL
Protocol: Differentiated U937 cells were pre-incubated with each test compound (final concentration 1 μg/mL or 10 μg/mL in 200 μL media indicated below) under two protocols: the first for 4 hr in 5% FCS RPMI1640 media and the second in 10% FCS RPMI1640 media for 24 h. The supernatant was replaced with new media (200 μL) and MTT stock solution (10 μL, 5 mg/mL) was added to each well. After incubation for 1 hr the media were removed, DMSO (200 μL) was added to each well and the plates were shaken lightly for 1 hr prior to reading the absorbance at 550 nm. The percentage loss of cell viability was calculated for each well relative to vehicle (0.5% DMSO) treatment. Consequently an apparent increase in cell viability for drug treatment relative to vehicle is tabulated as a negative percentage.

[2] = Physical stability on storage (TGA, XRPD, IR, DSC, appearance); format: physicochemical; design: key to XRD / IR: Cryst.: crystalline; ~Ref: pattern identical with reference sample; conditions: for Appearance / IR / XRD / DSC max / TGA <100° C. weight loss / TGA <180° C. weight loss: form B micronized
Protocol: Patterns were obtained on a PANalytical (Philips) X'PertPRO MPD diffractometer equipped with a Cu LFF X-ray tube (45 kV; 40 mA; Bragg-Brentano; spinner stage) and were acquired using Cu Kα radiation under the following measurement conditions: scan mode: continuous; scan range: 3 to 50° 2θ; step size: 0.02°/step; counting time: 30 sec/step; spinner revolution time: 1 sec; incident beam path: program. divergence slit: 15 mm; Soller slit: 0.04 rad; beam mask: 15 mm; anti scatter slit: 1°; beam knife: +; Diffracted beam path: long anti scatter shield: +; Soller slit: 0.04 rad; Ni filter: +; detector: X'Celerator. Samples were prepared by spreading on a zero background sample holder.
Micro attenuated total reflectance (microATR) was used and the sample was analyzed using a suitable microATR accessory and the following measurement conditions: apparatus: Thermo Nexus 670 FTIR spectrometer; number of scans: 32; resolution: 1 cm^−1; wavelength range: 4000 to 400 cm^−1; detector: DTGS with KBr windows; beamsplitter: Ge on KBr; micro ATR accessory: Harrick Split Pea with Si crystal.
Data were collected on a TA-Instruments Q1000 MTDSC equipped with RCS cooling unit. Typically 3 mg of each compound, in a standard aluminium TA-Instrument sample pan, was heated at 10° C./min from 25 C to 300° C. A nitrogen purge at 50 mL/min was maintained over the sample.
Data were collected on a TA-Instruments Q500 thermogravimeter Typically 10 mg of each sample was transferred into a pre-weighed aluminium pan and was heated at 20° C./min from ambient temperature to 300° C. or […] unless otherwise stated.
Thermal analysis of Compound (I) as the anhydrous free base in crystalline polymorphic form B (micronized) was undertaken using TGA, DVS, XRPD analysis, IR spectroscopy and DSC as described in General Procedures. Where appropriate, a sample at ambient temperature and relative humidity (reference sample/“0 days”) was compared with samples stored at various temperatures and relative humidities (comparative samples).
The reference sample (t=0) and the comparative samples that were exposed prior to analysis to different storage conditions, were heated at a rate of 20° C./min from RT to 300° C. The TGA curve of the reference sample (t=0) is illustrated in FIG. 3 and the results for all samples are summarised below (Table 8). […] The weight loss that occurred above 180° C. was due to evaporation and decomposition of the product. Comparing this weight loss profile with those of the comparative samples in Table 8, no significant differences were observed.
The XPRD diffraction pattern of the reference sample (t=0) is illustrated in FIG. 2 and the IR trace is illustrated in FIG. 6. The diffraction pattern and IR trace were compared with those of the comparative samples (exposed to different storage conditions) and the results are summarised in Table 8. The diffraction patterns and IR traces were identical for all samples.
The reference sample (t=0) and comparative samples, previously exposed to different storage conditions, were heated at a rate of 10° C./min from 25° C. to 300° C. The DSC curve of the reference sample is illustrated in FIG. 7 and the results for all samples are summarised below (Table 8). From FIG. 7, it is evident that the reference sample melted with decomposition at 214.0° C.

With `Cc1ccc(-n2nc(C(C)(C)C)cc2NC(=O)Nc2ccc(Oc3ccnc(Nc4ccccc4)n3)c3ccccc23)cc1` [Compound (I), 1-(3-(tert-Butyl)-1-(p-tolyl)-1H-pyrazol-5-yl)-3-(4-((2-(phenylamino)pyrimidin-4-yl)oxy)naphthalen-1-yl)urea] the “MTT Assay Cell viability in d-U937 Cells” value ([1]; 4 h) was “−ve (−ve and +ve indicate the value is below and above respectively, the no significant effect threshold defined as 30% inhibition at 1 μg/mL at the time point indicated.)”, the “MTT Assay Cell viability in d-U937 Cells” value ([1]; 24 h) was “−ve (−ve and +ve indicate the value is below and above respectively, the no significant effect threshold defined as 30% inhibition at 1 μg/mL at the time point indicated.)” and the “physical stability” value ([2]; form B) was “good physical stability”. The Appearance ([2]; 1 week/70° C./75% RH) was “off-white”, the IR ([2]; 1 week/70° C./75% RH) was “~Ref” and the XRD ([2]; 1 week/70° C./75% RH) was “~Ref”. The Appearance ([2]; 1 week/80° C.) was “off-white”, the IR ([2]; 1 week/80° C.) was “~Ref” and the XRD ([2]; 1 week/80° C.) was “~Ref”. For the same compound, the Appearance ([2]; 4 weeks/40° C./75% RH) was “off-white”, the DSC max ([2]; 4 weeks/40° C./75% RH) was 214 °C and the IR ([2]; 4 weeks/40° C./75% RH) was “~Ref”. For the same compound, the “TGA <100° C. weight loss” value ([2]; 4 weeks/40° C./75% RH) was 0.8%, the “TGA <180° C. weight loss” value ([2]; 4 weeks/40° C./75% RH) was 0.3% and the XRD ([2]; 4 weeks/40° C./75% RH) was “~Ref”. The Appearance ([2]; 4 weeks/50° C.) was “off-white”, the DSC max ([2]; 4 weeks/50° C.) was 214 °C and the IR ([2]; 4 weeks/50° C.) was “~Ref”. The “TGA <100° C. weight loss” value ([2]; 4 weeks/50° C.) was 1.3%, the “TGA <180° C. weight loss” value ([2]; 4 weeks/50° C.) was 0.5% and the XRD ([2]; 4 weeks/50° C.) was “~Ref”. For the same compound, the Appearance ([2]; 4 weeks/RT/56% RH) was “off-white”, the DSC max ([2]; 4 weeks/RT/56% RH) was 214 °C and the IR ([2]; 4 weeks/RT/56% RH) was “~Ref”. For the same compound, the “TGA <100° C. weight loss” value ([2]; 4 weeks/RT/56% RH) was 0.5%, the “TGA <180° C. weight loss” value ([2]; 4 weeks/RT/56% RH) was 0.4% and the XRD ([2]; 4 weeks/RT/56% RH) was “~Ref”. For the same compound, the Appearance ([2]; 4 weeks/RT/75% RH) was “off-white”, the DSC max ([2]; 4 weeks/RT/75% RH) was 214 °C and the IR ([2]; 4 weeks/RT/75% RH) was “~Ref”. For the same compound, the “TGA <100° C. weight loss” value ([2]; 4 weeks/RT/75% RH) was 0.9%, the “TGA <180° C. weight loss” value ([2]; 4 weeks/RT/75% RH) was 0.5% and the XRD ([2]; 4 weeks/RT/75% RH) was “~Ref”. The Appearance ([2]; 4 weeks/RT/<5% RH) was “off-white”, the DSC max ([2]; 4 weeks/RT/<5% RH) was 214 °C and the IR ([2]; 4 weeks/RT/<5% RH) was “~Ref”. The “TGA <100° C. weight loss” value ([2]; 4 weeks/RT/<5% RH) was 0.8%, the “TGA <180° C. weight loss” value ([2]; 4 weeks/RT/<5% RH) was 0.5% and the XRD ([2]; 4 weeks/RT/<5% RH) was “~Ref”. For the same compound, the Appearance ([2]; T = zero) was “off-white”, the DSC max ([2]; T = zero) was 214 °C and the IR ([2]; T = zero) was “Cryst”. For the same compound, the “TGA <180° C. weight loss” value ([2]; T = zero) was 0.6% and the XRD ([2]; T = zero) was “Cryst”.
